What was measured:
LITAF = test: Western blot of LITAF in oral keratinocytes; format: cell-based, human
Description: Cell Culture. Normal human oral keratinocytes (NOKSI) and fibroblast (HOF) cells were maintained in Dulbecco […] Eagle's medium (Sigma-Aldrich, St. Louis, MO, USA) supplemented with 10% fetal bovine serum (Atlas Bio-logicals, Fort Collins, CO, USA) and 100 units/mL penicillin and 100 μg/mL streptomycin (LifeTechnologies, Carlsbad, CA, USA). Cells were grown in incubator at 37° C. in a humidified chamber with 5% CO2.
Drugs treatment in cell culture. The cells were treated alone or with different combination of lipopolysaccharide, cyclosporine, phenytoin, and folic acid. All of them were purchased from Sigma-Aldrich (St. Louis, MO, USA). Each of them were used from 0 μg/ml to 40 μg/ml and the optimum concentration were found 10 μg/ml.
(§1) Western blot analysis. Cells were seeded in 60 mm plates with a density of 5×10^5 cells per plate and washed briefly with Dulbecco's phosphate-buffered saline (Gibco, Waltham, MA, USA). Whole cell lysates were prepared using RIPA lysis buffer containing protease inhibitor cocktail (Sigma-Aldrich). Total protein concentration was determined using the BCA reagent (Pierce, Waltham, MA, USA). 20 μg of total protein were resolved on sodium dodecyl sulfate-polyacrylamide gel electrophoresis and transferred to polyvinylidenedifluoride membrane and immunoblotted. The blots were incubated for 1 h in 1% bovine serum albumin (BSA) (Sigma-Aldrich) to block the non-specific bindings followed by over-night incubation in primary antibodies (MyD88 and pP65 from Cell Signaling Technology, and human LITAF ThermoFisher Sigma) at 4° C. on shaker. Next day, blots were washed for three times (10 min each) in Tris-buffered saline containing 1% Tween20 (TBST) followed by incubation with secondary antibody (Goat anti-rabbit IgG HRP) with 1:10,000 dilution for 1 h. Following washes, bands were visualized using gel documentation Imaging Systems (BioRad). The band intensities were quantified using software ImageJ (NIH, USA) and relative protein levels were normalized by β-actin (Cell Signaling). To perform the western blot of animal tissue samples, the gingival tissues were collected from both BABLB/c and C57BL/6 mice studies. The soft tissues were separated from the mandibular bone and then crunched. The Bradford assay was performed to measure the protein concentration of each sample. After normalization, 20 μg of whole tissue protein lysate were proceeded for western blot analysis.

TLR2 = test: FACS of surface TLR2 on oral keratinocytes; format: cell-based, human; details: LPS (10 μg/ml), Phe (10 μg/ml), different concentration of folic acid, 24 hours
Description: Flow cytometry. NOKSI cells were seeded in 100 mm plates with a density of 1×10^6 cells per plate. Cells were treated with drugs, LPS, and folic acid alone or in combination. After NOKSI were detached using Corning Cell Lifter (Corning) and 10 mM EDTA in PBS, the cells were washed with FACS buffer (PBS containing 1% BSA [Sigma] and 2 mM EDTA). Cells were stained by immunofluorescence for CD282 (TLR2) and CD284 (TLR4). Fluorescent labeled antibodies at a dilution of 1:1000 in staining buffer with 2% FBS in PBS were added and incubated for 30 min in dark on ice. Cells were centrifuged and washed thrice in staining buffer and passed through a 70 μm cell strainer before data acquisition. Data analysis was performed using FlowJo (TreeStar, Ashland, OR, USA). All incubations were performed on ice.
Oral Keratinocytes Cells were treated with only LPS (10 μg/ml) for 24 hours. […] Cells were treated with LPS (10 μg/ml) and Phe (10 μg/ml) for 24 hours. […] Cells were treated with LPS (10 μg/ml), Phe (10 μg/ml), and FA ([…]) for 24 hours. […] FIG. 16.

Myd88 = test: Mice study #2: Myd88 immunoblotting of gingival samples; format: in vivo, C57BL/6 mice; details: three mice per group
Description: as §1, with “Following washes, bands were visualized using gel documentation Imaging Systems (BioRad).” left out, “[…] The band intensities were measured by” for “To perform”, “software ImageJ (NIH, USA), and relative protein levels” for “western blot of animal tissue samples, the gingival tissues”, “normalized by β-actin.” for “collected from both BABLB/c and C57BL/6 mice studies. The soft tissues were separated from the mandibular bone and then crunched. The Bradford assay was performed to measure the protein concentration of each sample. After normalization, 20 μg of whole tissue protein lysate were proceeded for western blot analysis.”

Nc1nc2ncc(CNc3ccc(C(=O)N[C@@H](CCC(=O)O)C(=O)O)cc3)nc2c(=O)[nH]1 [folic acid]
LITAF protein level (LITAF; LPS, CSA, FA each 10 μg/ml, 24 hours): inhibits CSA-induced expression
amount of LITAF protein (LITAF; LPS, Phe, FA each 10 μg/ml, 24 hours): LITAF expression is reduced
amount of LITAF protein (LITAF; different concentrations of folic acid (2.5-40 μg/ml), 24 hours): dose dependent effect
LITAF by western blot (LITAF; normal oral keratinocyte cells, FIG. 35): downregulation
TLR2 receptor on the cell surface (TLR2): do not alter
Myd88 expression, disease group relative to control and folic acid treatment group (Myd88): higher Myd88 expressions compared to the control and treatment group

Reference: US20260000496A1, “MATERIALS AND METHODS FOR DRUG-INDUCED GINGIVAL OVERGROWTH” (Optimed Technology, Inc., priority 2019, published 2026)
